Laboratory results from patent US20220017512A1 (SHANGHAI ENNOVABIO PHARMACEUTICALS CO., LTD., priority 2018, published 2022).
Counter-ions that a name gives are not always drawn.

Columns and labels:
Assay type in all cases: biochemical
[1] = biological target: T1, Recombinant human TRKA (Homo sapiens, UniProt P04629); assay: In vitro activity test on TRKA kinase (HTRF KinEASE TK); settings: 14.68 μM ATP, 40 min
T1 construct: purchased Carna Biosciences
Summary of the method: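 Reaction: 0.2 ng/μL TRKA, 1 μM biotinylated TK substrate, 14.68 μM ATP, 5 mM MgCl2, 1 mM DTT, 1% DMSO, 40 min at room temperature. Compounds tested at 1 μM to 0.05 nM (10-point, 3-fold, duplicate). HTRF 665/620 ratio converted to % inhibition versus no-compound control; IC50 by 4-parameter fit.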

[2] = biological target: T2, Recombinant human TRKB (Homo sapiens, UniProt Q16620); assay: In vitro activity test on TRKB kinase (HTRF KinEASE TK); settings: 4.77 μM ATP, 50 min
T2 construct: purchased Carna Biosciences
Summary of the method: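 Recombinant human TRKB (0.037 ng/μL) phosphorylated 1 μM biotinylated TK substrate at 4.77 μM ATP, 5 mM MgCl2, 1% DMSO, 50 min at room temperature; compounds 1 μM–0.05 nM. HTRF KinEASE detection overnight; 665/620 ratio converted to inhibition and IC50 from 4-parameter fit.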

[3] = biological target: T3, recombinant human TRKA (G595R) (Homo sapiens, UniProt P04629, G595R); assay: In vitro activity test on mutant TRKA (G595R) (HTRF KinEASE TK); settings: 4.5 μM ATP, 30 min
T3 construct: purchased SignalChem
Summary of the method: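 HTRF KinEASE TK format: 0.12 ng/μL recombinant TRKA (G595R), 1 μM biotinylated TK substrate, 4.5 μM ATP, 5 mM MgCl2, 1 mM DTT, 1% DMSO, 30 min at room temperature; detection overnight. IC50 from 10-point 4-fold series (1 μM to 0.004 nM, duplicates), 665/620 ratio, 4-parameter fit.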

[4] = biological target: T4, recombinant human TRKA (G667C) (Homo sapiens, UniProt P04629, G667C); assay: In vitro activity test on mutant TRKA (G667C) (HTRF KinEASE TK); settings: 5.5 μM ATP, 30 min
T4 construct: purchased SignalChem
Procedure: Biological Test Example 2 In Vitro Activity Test on Mutant TRKA (G595R), TRKA (G667C) and TRKC (G623R)
The recombinant human TRKA (G595R), TRKA (G667C) and TRKC (G623R) proteins were purchased from SignalChem. HTRF kinEASE TK kit was purchased from CisbioBioassays. Synergy Neo 2 of Biotek was used to read the plate.
The tested compound was subjected to 4-fold serial dilution to reach a final concentration of 1 μM to 0.004 nM (10 concentrates), duplicates for each concentration; and 1% DMSO was present in the detection reaction.
0.026 ng/μL TRKA (G667C) kinase, 1 μM TK Substrate-biotin polypeptide substrate, 5.5 μm ATP, 1× enzymatic buffer, 5 mM MgCl2, and 1 mM DTT. The detection plate was White Proxiplate 384-Plus plate (PerkinElmer), and incubated at room temperature for 30 min, the assay volume was 10 μL.
10 μL of detection reagent was added to the plate (containing 0.125 μM SA-XL665 and 5 μL 1×TK-Antibody) and incubated overnight at room temperature, and Synergy Neo 2 was used to read the plate.
The value of 665/620 Ratio minus the value of negative control wells without enzyme, then the obtained value was converted according to the following formula into inhibition rate (%)=(1−Ratiotest/Ratiomax)×100%. Ratiomax was a positive control without tested compound, and Ratiotest was the value of each concentration of different compounds. IC50 (nM) data was obtained by 4 parameter curve fitting (see Table 1).

[5] = biological target: T5, Recombinant human TRKC (Homo sapiens, UniProt Q16288); assay: In vitro activity test on TRKC kinase (HTRF KinEASE TK); settings: 25.64 μM ATP, 40 min
T5 construct: purchased Carna Biosciences
Summary of the method: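 Recombinant human TRKC (0.037 ng/μL) with 1 μM biotinylated TK substrate, 25.64 μM ATP, 5 mM MgCl2, 1 mM DTT, 40 min at room temperature; compound 1 μM to 0.05 nM, 1% DMSO. HTRF 665/620 ratio after overnight detection; IC50 from 4-parameter fit.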

T1 sequence (P04629 33-796): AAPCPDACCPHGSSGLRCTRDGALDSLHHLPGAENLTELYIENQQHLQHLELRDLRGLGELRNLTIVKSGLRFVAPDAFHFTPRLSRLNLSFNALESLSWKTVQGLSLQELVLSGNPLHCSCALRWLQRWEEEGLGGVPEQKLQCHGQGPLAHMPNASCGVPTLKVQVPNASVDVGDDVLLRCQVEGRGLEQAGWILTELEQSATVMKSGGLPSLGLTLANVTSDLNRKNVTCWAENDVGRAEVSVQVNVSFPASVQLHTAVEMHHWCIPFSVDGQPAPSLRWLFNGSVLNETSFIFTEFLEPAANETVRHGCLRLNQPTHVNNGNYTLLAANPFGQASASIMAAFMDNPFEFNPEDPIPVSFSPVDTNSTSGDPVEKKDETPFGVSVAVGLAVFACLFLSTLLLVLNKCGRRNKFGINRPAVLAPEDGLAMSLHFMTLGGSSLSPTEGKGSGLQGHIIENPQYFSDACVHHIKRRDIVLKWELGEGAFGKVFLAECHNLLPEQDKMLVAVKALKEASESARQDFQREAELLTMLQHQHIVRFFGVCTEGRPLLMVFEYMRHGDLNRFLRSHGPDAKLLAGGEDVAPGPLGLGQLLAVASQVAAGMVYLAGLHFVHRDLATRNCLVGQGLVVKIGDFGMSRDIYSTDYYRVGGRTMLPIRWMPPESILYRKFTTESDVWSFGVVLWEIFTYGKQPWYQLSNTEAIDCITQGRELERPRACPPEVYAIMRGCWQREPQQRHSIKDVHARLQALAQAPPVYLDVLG
T5 sequence (Q16288 32-839): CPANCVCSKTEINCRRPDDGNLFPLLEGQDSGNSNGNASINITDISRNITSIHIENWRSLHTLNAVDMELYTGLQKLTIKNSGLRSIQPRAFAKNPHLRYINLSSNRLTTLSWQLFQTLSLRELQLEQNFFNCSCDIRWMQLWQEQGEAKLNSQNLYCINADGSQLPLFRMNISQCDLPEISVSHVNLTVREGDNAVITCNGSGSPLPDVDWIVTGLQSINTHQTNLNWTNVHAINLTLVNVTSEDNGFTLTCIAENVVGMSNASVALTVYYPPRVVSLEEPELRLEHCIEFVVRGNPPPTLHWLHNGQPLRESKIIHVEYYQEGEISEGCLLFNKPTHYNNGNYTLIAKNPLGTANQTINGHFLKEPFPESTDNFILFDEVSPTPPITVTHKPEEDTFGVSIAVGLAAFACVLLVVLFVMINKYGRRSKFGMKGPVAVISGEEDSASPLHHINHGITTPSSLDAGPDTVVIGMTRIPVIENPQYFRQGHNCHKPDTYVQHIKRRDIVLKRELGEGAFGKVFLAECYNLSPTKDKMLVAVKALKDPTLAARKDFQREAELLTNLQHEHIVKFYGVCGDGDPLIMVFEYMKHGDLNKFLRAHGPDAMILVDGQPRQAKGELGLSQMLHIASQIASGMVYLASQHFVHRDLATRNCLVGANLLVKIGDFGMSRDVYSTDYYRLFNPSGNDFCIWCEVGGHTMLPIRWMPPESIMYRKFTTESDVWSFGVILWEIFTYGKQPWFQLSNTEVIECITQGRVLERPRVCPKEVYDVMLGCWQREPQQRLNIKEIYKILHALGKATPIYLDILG
T3 sequence (P04629 33-796 G595R): as the sequence (P04629 33-796) above, with G563R counted along it
T4 sequence (P04629 33-796 G667C): as the sequence (P04629 33-796) above, with G635C counted along it
T2 sequence (Q16620 32-822): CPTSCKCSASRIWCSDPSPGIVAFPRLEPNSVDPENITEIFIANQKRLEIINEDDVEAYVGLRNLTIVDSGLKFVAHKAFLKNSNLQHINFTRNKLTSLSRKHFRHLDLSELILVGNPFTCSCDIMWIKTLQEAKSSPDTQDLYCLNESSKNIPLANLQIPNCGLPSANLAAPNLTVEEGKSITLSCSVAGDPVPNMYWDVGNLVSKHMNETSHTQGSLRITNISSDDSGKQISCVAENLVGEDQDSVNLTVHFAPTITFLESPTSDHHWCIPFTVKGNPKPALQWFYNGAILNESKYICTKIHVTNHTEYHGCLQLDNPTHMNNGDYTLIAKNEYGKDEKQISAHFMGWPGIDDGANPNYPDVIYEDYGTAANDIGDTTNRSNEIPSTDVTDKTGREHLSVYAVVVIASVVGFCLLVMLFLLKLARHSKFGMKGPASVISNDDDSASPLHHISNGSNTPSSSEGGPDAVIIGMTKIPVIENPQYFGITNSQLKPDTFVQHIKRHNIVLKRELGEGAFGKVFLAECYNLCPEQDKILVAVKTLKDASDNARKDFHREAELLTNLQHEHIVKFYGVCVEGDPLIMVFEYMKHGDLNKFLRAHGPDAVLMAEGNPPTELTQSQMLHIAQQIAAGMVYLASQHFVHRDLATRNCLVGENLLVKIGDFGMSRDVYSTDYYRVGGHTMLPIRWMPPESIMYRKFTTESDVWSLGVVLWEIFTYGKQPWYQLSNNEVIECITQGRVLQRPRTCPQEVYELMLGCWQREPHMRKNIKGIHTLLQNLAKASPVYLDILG

Structure (SMILES)	IC50 [1]	IC50 [2]	IC50 [3]	IC50 [4]	IC50 [5]
OC[C@H](O)CN1CCC(n2cc(-c3c(Cl)cnc4ccc(N5C[C@@H](F)C[C@@H]5c5cc(F)ccc5F)nc34)cn2)CC1 [Example 40, (R)-3-(4-(4-(3-chloro-6-((2R,4S)-2-(2,5-difluorophenyl)-4-fluoropyrrolidin-1-yl)-1,5-naphthyridin-4-yl)-1H-pyrazol-1-yl)piperidin-1-yl)propane-1,2-diol]	< 1 nM	< 1 nM	< 1 nM	< 1 nM	< 1 nM
Fc1ccc(F)c([C@H]2C[C@H](F)CN2c2ccc3ncc(Cl)c(-c4cnn(C5CCNCC5)n4)c3n2)c1 [Example 41, 7-chloro-2-((2R,4S)-2-(2,5-difluorophenyl)-4-fluoropyrrolidin-1-yl)-8-(2-(piperidin-4-yl)-2H-1,2,3-triazol-4-yl)-1,5-naphthyridine]	< 1 nM	< 1 nM	< 10 nM	< 1 nM	< 1 nM
Fc1ccc(F)c([C@H]2C[C@H](F)CN2c2ccc3ncc(Cl)c(-c4nnc(C5CCNCC5)o4)c3n2)c1 [Example 42, 2-(3-Chloro-6-((2R,4S)-2-(2,5-difluorophenyl)-4-fluoropyrrolidin-1-yl)-1,5-naphthyridin-4-yl)-5-(piperidin-4-yl)-1,3,4-oxadiazole]	< 1 nM	< 1 nM	< 10 nM	< 10 nM	< 1 nM
CN1CCC(n2cc(-c3c(Cl)cnc4ccc(N5C[C@@H](F)C[C@@H]5c5cc(F)ccc5F)nc34)cn2)CC1 [Example 43, 7-Chloro-2-((2R,4S)-2-(2,5-difluorophenyl)-4-fluoropyrrolidin-1-yl)-8-(1-(1-methylpiperidine-4-yl)-1H-pyrazol-4-yl)-1,5-naphthyridine]	< 1 nM	< 1 nM	< 10 nM	< 1 nM	< 1 nM
OC[C@@H](O)CN1CCC(n2cc(-c3c(Cl)cnc4ccc(N5C[C@@H](F)C[C@@H]5c5cc(F)ccc5F)nc34)cn2)CC1 [Example 44, (S)-3-(4-(4-(3-chloro-6-((2R,4S)-2-(2,5-difluorophenyl)-4-fluoropyrrolidin-1-yl)-1,5-naphthyridin-4-yl)-1H-pyrazol-1-yl)piperidin-1-yl)propane-1,2-diol]	< 1 nM	< 1 nM	< 10 nM	< 1 nM	< 1 nM
Fc1ccc(F)c([C@H]2C[C@H](F)CN2c2ccc3ncnc(-c4cnn(C5CCNCC5)c4)c3n2)c1 [Example 46]	< 1 nM	< 1 nM	< 1 nM	< 1 nM	< 1 nM
O=S1(=O)CCC(n2cc(-c3c(Cl)cnc4ccc(N5C[C@@H](F)C[C@@H]5c5cc(F)ccc5F)nc34)cn2)CC1 [Example 47, 4-(4-(3-chloro-6-((2R,4S)-2-(2,5-difluorophenyl)-4-fluoropyrrolidin-1-yl)-1,5-naphthyridin-4-yl)-1H-pyrazol-1-yl)tetrahydro-2H-thiopyran 1,1-dioxide]	< 1 nM	< 1 nM	< 10 nM	< 1 nM	< 1 nM
Fc1ccc(F)c([C@H]2C[C@H](F)CN2c2ccc3ncc(Cl)c(-c4ccn(C5CCNCC5)c4)c3n2)c1 [Example 48, 7-chloro-2-((2R,4S)-2-(2,5-difluorophenyl)-4-fluoropyrrolidin-1-yl)-8-(1-(piperidin-4-yl)-1H-pyrrol-3-yl)-1,5-naphthyridine]	< 1 nM	< 1 nM	< 10 nM	< 10 nM	< 1 nM
O=C(Nc1c(Cl)cnc2ccc(N3C[C@@H](F)C[C@@H]3c3cc(F)ccc3F)nc12)N1CC[C@H](O)C1 [Example 49, (S)-N-(3-Chloro-6-((2R,4S)-2-(2,5-difluorophenyl)-4-fluoropyrrolidin-1-yl)-1,5-naphthyridin-4-yl)-3-hydroxypyrrolidin-1-carboxamide]	< 1 nM	< 1 nM	< 10 nM	< 10 nM	< 10 nM
Fc1ccc(F)c([C@H]2C[C@H](F)CN2c2ccc3ncc(Cl)c(-c4cnc(C5CCNCC5)s4)c3n2)c1 [Example 50, 5-(3-Chloro-6-((2R,4S)-2-(2,5-difluorophenyl)-4-fluoropyrrolidin-1-yl)-1,5-naphthyridin-4-yl)-2-(piperidin-4-yl)thiazole]	< 1 nM	< 10 nM	< 10 nM	< 10 nM	< 10 nM
Fc1ccc(F)c([C@H]2C[C@H](F)CN2c2ccc3ncc(Cl)c(-c4noc(C5CCNCC5)n4)c3n2)c1 [Example 51, 3-(3-Chloro-6-((2R,4S)-2-(2,5-difluorophenyl)-4-fluoropyrrolidin-1-yl)-1,5-naphthyridine-4-yl)-5-(piperidin-4-yl)-1,2,4-oxadiazole]	< 1 nM	< 1 nM	< 1 nM	< 1 nM	< 1 nM
Fc1ccc(F)c([C@H]2C[C@H](F)CN2c2ccc3ncc(Cl)c(-c4cnn([C@@H]5CCCNC5)c4)c3n2)c1 [Example 54, 7-chloro-2-((2R,4S)-2-(2,5-difluorophenyl)-4-fluoropyrrolidin-1-yl)-8-(1-((R)-piperidin-3-yl)-1H-pyrazol-4-yl)-1,5-naphthyridine]	< 10 nM	< 10 nM	< 10 nM	< 10 nM	< 10 nM
Fc1ccc(F)c([C@H]2C[C@H](F)CN2c2ccc3ncc(Cl)c(-c4cnn([C@@H]5CCNC5)c4)c3n2)c1 [Example 56, 7-chloro-2-((2R,4S)-2-(2,5-difluorophenyl)-4-fluoropyrrolidin-1-yl)-8-(1-((R)-pyrrolidin-3-yl)-1H-pyrazol-4-yl)-1,5-naphthyridine]	< 1 nM	< 10 nM	< 10 nM	< 10 nM	< 1 nM
Fc1ccc(F)c([C@H]2C[C@H](F)CN2c2ccc3ncc(Cl)c(-c4cnn([C@H]5CCNC5)c4)c3n2)c1 [Example 57, 7-chloro-2-((2R,4S)-2-(2,5-difluorophenyl)-4-fluoropyrrolidin-1-yl)-8-(1-((S)-pyrrolidin-3-yl)-1H-pyrazol-4-yl)-1,5-naphthyridine]	< 1 nM	< 10 nM	< 1 nM	< 10 nM	< 1 nM
Fc1ccc(F)c([C@H]2C[C@H](F)CN2c2ccc3ncnc(-c4cnn(CC5CNC5)c4)c3n2)c1 [Example 59, 4-(1-(azetidin-3-ylmethyl)-1H-pyrazol-4-yl)-6-((2R,4S)-2-(2,5-difluorophenyl)-4-fluoropyrrolidin-1-yl)pyrido[3,2-d]pyrimidine HCOOH salt]	< 1 nM	< 50 nM	< 10 nM	< 10 nM	< 1 nM
Fc1ccc(F)c([C@H]2C[C@H](F)CN2c2ccc3ncc(Cl)c(-c4cnc(N5CCOCC5)s4)c3n2)c1 [Example 61, 4-(5-(3-chloro-6-((2R,4S)-2-(2,5-difluorophenyl)-4-fluoropyrrolidin-1-yl)-1,5-naphthyridin-4-yl)thiazol-2-yl)morpholine]	< 10 nM	< 50 nM	< 50 nM	< 10 nM	< 10 nM
O[C@H]1CCN(c2ccc(-c3c(Cl)cnc4ccc(N5C[C@@H](F)C[C@@H]5c5cc(F)ccc5F)nc34)cn2)C1 [Example 66, (S)-1-(5-(3-chloro-6-((2R,4S)-2-(2,5-difluorophenyl)-4-fluoropyrrolidin-1-yl)-1,5-naphthyridin-4-yl)pyridin-2-yl)pyrrolidin-3-ol]	< 1 nM	< 10 nM	< 10 nM	< 10 nM	< 10 nM
